pEC50: −log10 of the molar value. In brackets after ≈: the same amount, converted by molar mass. Like-named read-outs stand apart in the source and are kept apart here.
Key:
mitotoxicity = experiment: Mitotox safety margin (therapeutic window); type: cell-based; details: for Mitotox safety margin (Therapeutic window): class of the Ratio; for Ratio**: highest concentration with no observable mitotoxicity (μM) divided by the EC50 (μM) of the compound
HeLa MKYP cells [1] = experiment: Toxicity / cell death measured by DAPI staining (take-up); type: cell-based; details: for Toxicity (% positive for DAPI takeup @ 50 μM): Table 3; for Max cell death at 25 uM compound, 1 uM FO / Cell death at 25 μM (no FO): Table 3 Supplement B
Description: H2O2 treatment was performed as a control for cell death as measured by DAPI staining.
(§1) Briefly, HeLa MKYP cells were plated at 10,000 cells/well in 96 well plates along with compounds at various concentrations. Following 16 hrs of incubation, cells were treated with 1 uM FCCP/oligomycin for 6 hours, then analyzed via FACS for the presence of mitochondria in lysosomes (as determined by an emissions spectrum shift from the pH-sensitive mtKeima tag).

HeLa MKYP cells [2] = experiment: Human mitophagy assay (HeLa MKYP, mtKeima FACS, FCCP/oligomycin); type: cell-based
Description: as §1, with “tag). Examples are shown in FIG. 1 through FIG. 13 below.” for “tag).”

Solubility in 1× PBS = type: physicochemical
[3] = Homo sapiens, HeLa, Table 3, read-out: Potency at 1 μM F/O toxin* (EC50 of mitophagy activation)
[4] = Homo sapiens, HeLa, Table 3 Supplement B, read-out: Mitophagy EC50 (HeLa mKeima assay)
[5] = Table 3, read-out: Potency at 1 μM F/O toxin* (EC50 of mitophagy activation)

Structure (SMILES) | Mitotox safety margin (Therapeutic window) (mitotoxicity) | Ratio** (mitotoxicity) | Toxicity (% positive for DAPI takeup @ 50 μM) (HeLa MKYP cells [1]; 50 μM) [%] | Max cell death at 25 uM compound, 1 uM FO (HeLa MKYP cells [1]) [%] | Cell death at 25 μM (no FO) (HeLa MKYP cells [1]) [%] | pEC50 (HeLa MKYP cells [2]; [3]) | pEC50 (HeLa MKYP cells [2]; [4]) | solubility (Solubility in 1× PBS) [µM] | further results
FC(F)(F)c1cc2c(N[C@@H]3CCOc4ccccc43)ncnc2[nH]1 [Compound 37] | + (ratio <10) | 8.85 | 21.1 | 21 | 3.04 | 5.20 | 5.20 | 150 (≈ 50.1 µg/mL) | Toxicity (% positive for DAPI take-up at 50 μM)* (HeLa MKYP cells [1]; Table 3 Supplement A, 50 μM): 21.05%; EC50 (HeLa MKYP cells [2]; Homo sapiens, HeLa, Table 3 Supplement A, as measured in Table 3, read-out: Potency (EC50 Max Mitophagy) (μM)*): 6.28 µM
CN1CC[C@H](Nc2ncnc3[nH]c(C(F)(F)F)cc23)c2ccccc21 [Compound 81] | ++++ (ratio 30<) | 30 | 59.0 | 16 | 2.51 | – | 5.88 | 74.8 (≈ 26 µg/mL) | pEC50 (HeLa MKYP cells [2]; [5]): 5.77
C[C@H]1CCc2ccccc2[C@@H]1Nc1ncnc2[nH]c(C(F)(F)F)cc12 [Compound 82] | – | – | 28.3 | – | – | 6.00 | 5.99 | 1 (≈ 0.346 µg/mL) | Mitotox safety margin (Therapeutic window) (mitotoxicity; listed as EP-0037059): + (ratio <10); Ratio** (mitotoxicity; listed as EP-0037059): 8.69; Max cell death at 25 uM compound, 1 uM FO (HeLa MKYP cells [1]; listed as EP-0037059): 26%; Cell death at 25 μM (no FO) (HeLa MKYP cells [1]; listed as EP-0037059): 4.9%
C[C@H]1CCc2ccccc2[C@H]1Nc1ncnc2[nH]c(C(F)(F)F)cc12 [Compound 85] | + (ratio <10) | 7.74 | 31.4 | – | – | – | 5.97 | – | Max cell death at 25 uM compound, 1 uM FO (HeLa MKYP cells [1]; listed as EP-0037094): 31.4%; Cell death at 25 μM (no FO) (HeLa MKYP cells [1]; listed as EP-0037094): 7.13%; pEC50 (HeLa MKYP cells [2]; [5]): 5.96
O[C@@H]1Cc2ccccc2[C@H]1Nc1ncnc2[nH]c(C(F)(F)F)cc12 [Compound 88] | + (ratio <10) | 1.66 | 7.6 | 7.59 | 2.35 | – | 4.82 | 19.2 (≈ 6.42 µg/mL) | –
O[C@H]1Cc2ccccc2[C@@H]1Nc1ncnc2[nH]c(C(F)(F)F)cc12 [Compound 90] | + (ratio <10) | 1.35 | 14.4 | 14.4 | 2.51 | – | 4.73 | 20.1 (≈ 6.72 µg/mL) | –
N#Cc1cccc2c1CCCC2Nc1ncnc2[nH]c(C(F)(F)F)cc12 (stereo not shown) [Compound 92] | + (ratio <10) | 8.39 | 71.2 | 71.2 | 57.1 | 5.52 | 5.53 | 1 (≈ 0.357 µg/mL) | –
OC[C@@H]1CCc2ccccc2[C@H]1Nc1ncnc2[nH]c(C(F)(F)F)cc12 [Compound 94] | + (ratio <10) | 7.25 | 59.5 | 59.535 | 27 | 5.96 | 5.94 | 12.9 (≈ 4.67 µg/mL) | –
CO[C@H]1COc2ccccc2[C@@H]1Nc1ncnc2[nH]c(C(F)(F)F)cc12 [Compound 98] | – | – | 15.9 | – | – | – | – | 16.3 (≈ 5.94 µg/mL) | Max cell death at 25 uM compound, 1 uM FO (HeLa MKYP cells [1]; listed as EP-0037863): 15.865%; Cell death at 25 μM (no FO) (HeLa MKYP cells [1]; listed as EP-0037863): 3.66%; pEC50 (HeLa MKYP cells [2]; Table 3 Supplement B, listed as EP-0037863, read-out: Mitophagy EC50 (HeLa mKeima assay)): 5.40
CO[C@H]1COc2ccccc2[C@H]1Nc1ncnc2[nH]c(C(F)(F)F)cc12 [Compound 99] | – | – | 3.6 | 3.555 | 2.49 | 4.88 | 4.87 | 20.9 (≈ 7.61 µg/mL) | –
CC[C@@H]1CCc2ccccc2[C@@H]1Nc1ncnc2[nH]c(C(F)(F)F)cc12 [Compound 100] | ++ (ratio 10< × <20) | 13.8 | 8.7 | 8.735 | 5.04 | 5.74 | 5.74 | 9.39 (≈ 3.38 µg/mL) | –
C[C@H]1CCc2ccccc2[C@H]1Nc1ncnc2[nH]c(C(F)(F)F)cc12 [Compound 101] | – | – | 12.0 | – | – | – | – | – | Max cell death at 25 uM compound, 1 uM FO (HeLa MKYP cells [1]; listed as EP-0037881): 12%; Cell death at 25 μM (no FO) (HeLa MKYP cells [1]; listed as EP-0037881): 6.45%; pEC50 (HeLa MKYP cells [2]; [5]): < 4.30; Mitophagy EC50 (HeLa mKeima assay) (HeLa MKYP cells [2]; Table 3 Supplement B): Minimal activity; solubility (Solubility in 1× PBS; aqueous buffer): 7.79 µM (≈ 2.7 µg/mL)
C[C@H]1CCc2ccccc2[C@@H]1Nc1ncnc2[nH]c(C(F)(F)F)cc12 [Compound 102] | – | – | 13.3 | – | – | – | – | 1 (≈ 0.346 µg/mL) | Mitotox safety margin (Therapeutic window) (mitotoxicity; listed as EP-0037882): ++++ (ratio 30<); Ratio** (mitotoxicity; listed as EP-0037882): 42.16; Max cell death at 25 uM compound, 1 uM FO (HeLa MKYP cells [1]; listed as EP-0037882): 13.32%; Cell death at 25 μM (no FO) (HeLa MKYP cells [1]; listed as EP-0037882): 3.79%; pEC50 (HeLa MKYP cells [2]; [5]): 6.22; pEC50 (HeLa MKYP cells [2]; Table 3 Supplement B, listed as EP-0037882, read-out: Mitophagy EC50 (HeLa mKeima assay)): 6.23
C[C@@H]1CCc2ccccc2[C@H]1Nc1ncnc2[nH]c(C(F)(F)F)cc12 [Compound 103] | – | – | 23.8 | 23.8 | 17.9 | 5.38 | 5.38 | 1 (≈ 0.346 µg/mL) | –
CO[C@H]1COc2ccccc2[C@@H]1Nc1ncnc2[nH]c(C(F)(F)F)cc12 [Compound 104] | – | – | 7.7 | – | – | – | – | – | Max cell death at 25 uM compound, 1 uM FO (HeLa MKYP cells [1]; listed as EP-0037962): 7.67%; Cell death at 25 μM (no FO) (HeLa MKYP cells [1]; listed as EP-0037962): 5.15%; pEC50 (HeLa MKYP cells [2]; [5]): 5.82; pEC50 (HeLa MKYP cells [2]; Table 3 Supplement B, listed as EP-0037962, read-out: Mitophagy EC50 (HeLa mKeima assay)): 5.83; solubility (Solubility in 1× PBS; aqueous buffer): 1.31 µM (≈ 0.477 µg/mL)
CO[C@@H]1CCc2ccccc2[C@H]1Nc1ncnc2[nH]c(C(F)(F)F)cc12 [Compound 105] | – | – | 18.4 | 18.4 | 15.3 | – | 4.66 | 1 (≈ 0.362 µg/mL) | –
c1ccc2c(c1)CCC[C@H]2Nc1ncnc2[nH]c(C3CC3)cc12 [Compound 107] | ++++ (ratio 30<) | 53.2 | 16.6 | 14.9 | 9.32 | 6.32 | 6.33 | 1 (≈ 0.304 µg/mL) | –
CN(C)[C@H]1CCc2ccccc2[C@@H]1Nc1ncnc2[nH]c(C(F)(F)F)cc12 [Compound 108] | – | – | 79.3 | 79.29 | 4.33 | < 4.30 | 6.09 | 190 (≈ 71.3 µg/mL) | –
Fc1ccc2c(c1)CCCC2Nc1ncnc2[nH]c(C(F)(F)F)cc12 (stereo not shown) [Compound 109] | – | – | 30.1 | 30.1 | 3.27 | < 4.30 | 5.97 | 1 (≈ 0.35 µg/mL) | –
Oc1ccc2c(c1)CCC[C@H]2Nc1ncnc2[nH]c(C(F)(F)F)cc12 [Compound 110] | – | – | 11.0 | 11 | 3.32 | 5.36 | 5.36 | 102 (≈ 35.5 µg/mL) | –

From patent US20220162215A1, “COMPOSITIONS AND METHODS OF USING THE SAME FOR TREATMENT OF NEURODEGENERATIVE AND MITOCHONDRIAL DISEASE” (MITOKININ, INC., priority 2019, published 2022)
